Measurements reported in patent US12364671B1, “Methods of administering vitamin A and lactic acid to gilts” (CHINA AGRICULTURAL UNIVERSITY, priority 2024, dated 2025).

Key:
[1] = tested on: gilts; assay: Extra vitamin A fed to gilts prior to estrus initiation; format: in vivo; details: extra vitamin A in addition to the diet, no lactic acid
Text: Therefore, the inventors speculated that the lactic acid may be beneficial to the puberty onset and estrus of the gilts.

[2] = tested on: sheep; details: 50000 IU per day, continuously fed by 50 days; cited from earlier work
[3] = tested on: cows with reproductive disorders; details: vitamin A 50000 IU per day, alone or with carotene 200 mg per day; cited from earlier work

vitamin A
delayed estrus initiation or estrus disorder [1]: improve the delayed estrus initiation or estrus disorder in gilts to some extent | estrus rate [2]: no significantly affected | lambing rate [2]: significantly increased | conception rate [3]: significantly increased | estrogen level [3]: significantly increased | estrus ate [3]: not significantly affected | follicle size [3]: not significantly affected
